What was measured:
EfFolT [1] = target: T1, EfFolT (Enterococcus faecalis, UniProt Q837A3, N117A); test: biochemical
T1 construct: gene EF_0940

EfFolT [2] = target: T2, EfFolT (Enterococcus faecalis, UniProt Q837A3, K145A); test: biochemical
T2 construct: gene EF_0940

EfFolT [3] = target: T3, EfFolT (Enterococcus faecalis, UniProt Q837A3, T81A); test: biochemical
T3 construct: gene EF_0940

EfFolT [4] = target: T4, EfFolT (Enterococcus faecalis, UniProt Q837A3, T121A); test: biochemical
T4 construct: gene EF_0940

EfFolT [5] = target: T5, EfFolT (Enterococcus faecalis, UniProt Q837A3, R26A); test: biochemical
T5 construct: gene EF_0940

EfFolT [6] = target: T6, EfFolT (Enterococcus faecalis, UniProt Q837A3, K36A); test: biochemical
T6 construct: gene EF_0940

EfFolT [7] = target: T7, EfFolT (Enterococcus faecalis, UniProt Q837A3, Y129A); test: biochemical
T7 construct: gene EF_0940

EfFolT [8] = target: T8, EfFolT (Enterococcus faecalis, UniProt Q837A3, K145T); test: biochemical
T8 construct: gene EF_0940

EfFolT [9] = target: T9, EfFolT (Enterococcus faecalis, UniProt Q837A3, F80W); test: biochemical
T9 construct: gene EF_0940

EfFolT [10] = target: T10, EfFolT (Enterococcus faecalis, UniProt Q837A3, K36R); test: biochemical
T10 construct: gene EF_0940

EfFolT [11] = target: T11, EfFolT (Enterococcus faecalis, UniProt Q837A3); test: isothermal titration calorimetry; crystal structure […] A; assay type: binding; conditions: read-out: Dissociation constant/KD
T11 construct: gene EF_0940; full-length S component without ECF module; N-terminal His6 tag (pET28a, NdeI/XhoI), E. coli BL21(DE3), detergent-purified
T11 sequence (Q837A3 1-179): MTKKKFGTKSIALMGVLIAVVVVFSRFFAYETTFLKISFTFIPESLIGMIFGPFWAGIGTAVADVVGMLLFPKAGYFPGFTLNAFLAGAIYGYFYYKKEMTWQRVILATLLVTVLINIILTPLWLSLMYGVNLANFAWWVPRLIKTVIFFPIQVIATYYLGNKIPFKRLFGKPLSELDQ

`Nc1nc2ncc(CNc3ccc(C(=O)N[C@@H](CCC(=O)O)C(=O)O)cc3)nc2c(=O)[nH]1` [folate] was tested, and the Kd (EfFolT [1]) was 68.6 ± 6.4 nM, the Kd (EfFolT [2]) was 3.3 ± 0.198 µM and the Kd (EfFolT [3]) was 813 ± 162 nM. It also gave a Kd (EfFolT [4]) of 288 ± 21.1 nM, a Kd (EfFolT [5]) of 252 ± 22 nM and a Kd (EfFolT [6]) of 5.4 µM. It also gave a Kd (EfFolT [7]) of 635 ± 33.6 nM, a Kd (EfFolT [8]) of 3.69 µM and a Kd (EfFolT [9]) of 499 ± 25.8 nM. It also gave a Kd (EfFolT [10]) of 91.5 ± 7.5 nM and a Kd (EfFolT [11]) of 29.8 ± 4.7 nM.

— PMC4525288, “Structures of FolT in substrate-bound and substrate-released conformations reveal a gating mechanism for ECF transporters” (Nature Communications, 2015)
